Measurements reported in publication PMC8428568, “Discovery of re-purposed drugs that slow SARS-CoV-2 replication in human cells” (PLoS Pathogens, 2021).
Where a name gives a salt, the structure may show the parent alone. Read-outs that look alike come from different tables or passages of the source. *1 amine or outer side, *2 acyl side, *3 side chain or, on linkers, in order; H or OH if unused. Where a SMILES comes first, the peptide text is derived from it. Bridges are numbered along the chain shown (N, C = ends). [ ]: non-standard residue; d: D form. The star is where a group is joined. pTerphenylCO(4''-OnC5H11) = CCCCCOc1ccc(-c2ccc(-c3ccc(C(=O)*)cc3)cc2)cc1; Orn(4R-OH,5R-OH) = O=C([C@H](C[C@@H](O)[C@@H](O)N[*:3])N[*:1])[*:2]; hTyr(3S-OH,4S-OH) = N[C@H](C(=O)O)[C@H](O)[C@@H](O)c1ccc(O)cc1; Pro(3S-OH,4S-Me) = C[C@H]1CN[C@H](C(=O)O)[C@H]1O; Hyp = O=C(O)[C@@H]1C[C@@H](O)CN1

Tests used:
[1] = tested on: SARS-CoV-2-ΔOrf7a-NLuc virus; assay: microbe, parasite or virus in culture; type: cell-based; settings: for activity at 10 µM: Severe acute respiratory syndrome coronavirus 2, Vero, 72 h, read-out: Mean relative luminescence (n=4)
[2] = tested on: SARS-CoV-2-ΔOrf7a-NLuc virus; assay: microbe, parasite or virus in culture; type: cell-based; settings: for Mean relative luminescence (n=4): HUH7 screen
HUH7 cells = settings: for PrestoBlue relative viability: HUH7 screen; for toxic effects on cells: HUH7 cells screen
recombinant NLuc = type: biochemical; settings: for Relative Recombinant NLUC: recombinant NLuc activity relative to DMSO; for Reads Counts per second (read 1) / Reads Counts per second (read 4) / Reads Counts per second (read 3) / Reads Counts per second (read 2): recombinant NLuc; for Reads Counts per second (read 1): first read column; for Reads Counts per second (read 4): fourth read column; for Reads Counts per second (read 3): third read column
[3] = 1 = untreated, 0 = total inhibition
[4] = Vero screen, relative luminescence
[5] = Vero cells, 10 μM, 1 = DMSO-treated infected cells

Row | Structure (SMILES) | effect on virus replication [2] | activity at 10 µM [1, 3] [%] | PrestoBlue relative viability (Vero cells; [5]) | % activity in Vero 100PFU screen [1] [%] | Relative Recombinant NLUC (recombinant NLuc) | Reads Counts per second (read 1) (recombinant NLuc) [Counts per second] | Reads Counts per second (read 4) (recombinant NLuc) [Counts per second] | Reads Counts per second (read 3) (recombinant NLuc) [Counts per second] | other results
1 | Cc1cccc(C)c1OCC(=O)N[C@@H](Cc1ccccc1)[C@@H](O)C[C@H](Cc1ccccc1)NC(=O)[C@H](C(C)C)N1CCCNC1=O [Lopinavir] | failed to halt replication of SARS-CoV-2 |  |  |  |  |  |  |  | effect on virus replication [1]: failed to halt replication of SARS-CoV-2
2 | CCOC(=O)C1=C(COCCN)NC(C)=C(C(=O)OC)C1c1ccccc1Cl (stereo not drawn) [Amlodipine Besylate] |  | 12.4 | 1.385 |  |  |  |  |  | Mean relative luminescence (n=4) [1, 4]: 0.124; Mean relative luminescence (n=4) [2]: 0.03381; PrestoBlue relative viability (Vero cells; Vero screen): 1.385; PrestoBlue relative viability (HUH7 cells): 0.6859
3 | COC(=O)C[C@](O)(CCCC(C)(C)O)C(=O)O[C@@H]1C(OC)=C[C@]23CCCN2CCc2cc4c(cc2[C@H]13)OCO4 [Homoharringtonine] |  | 1.44 | 0.5068 |  |  |  |  |  | Mean relative luminescence (n=4) [1, 4]: 0.01441; Mean relative luminescence (n=4) [2]: 0.0133; PrestoBlue relative viability (Vero cells; Vero screen): 0.5068; PrestoBlue relative viability (HUH7 cells): 0.6794
4 | Cc1ccc(NC(=O)c2ccc(CN3CCN(C)CC3)cc2)cc1Nc1nc(-c2cccnc2)cs1 [Masitinib (AB1010), Masitinib] |  | 13.4 | 1.308 |  |  |  |  |  | Mean relative luminescence (n=4) [1, 4]: 0.1339; Mean relative luminescence (n=4) [2]: 0.03917; PrestoBlue relative viability (Vero cells; Vero screen): 1.308; PrestoBlue relative viability (HUH7 cells): 0.7156
5 | CC(C)c1nc(CN(C)C(=O)N[C@H](C(=O)N[C@@H](Cc2ccccc2)C[C@H](O)[C@H](Cc2ccccc2)NC(=O)OCc2cncs2)C(C)C)cs1 [Ritonavir] | failed to halt replication of SARS-CoV-2 |  |  |  |  |  |  |  | effect on virus replication [1]: failed to halt replication of SARS-CoV-2
6 | CC[C@@H](C(=O)[C@@H](C)[C@@H](O)[C@H](C)[C@@H]1O[C@@H]([C@@H](CC)C(=O)O)CC[C@@H]1C)[C@H]1O[C@]2(C=C[C@@H](O)[C@]3(CC[C@@](C)([C@H]4CC[C@](O)(CC)[C@H](C)O4)O3)O2)[C@H](C)C[C@@H]1C [Salinomycin] |  | 1.89 | 0.6121 | 3.75 | 0.9779 | 365050 | 367850 | 373342 | 
7 | CC[C@H]1OC(=O)[C@H](C)[C@@H](O[C@H]2C[C@@](C)(OC)[C@@H](O)[C@H](C)O2)[C@H](C)[C@@H](O[C@@H]2O[C@H](C)C[C@H](N(C)C)[C@H]2O)[C@](C)(O)C[C@@H](C)CN(C)[C@H](C)[C@@H](O)[C@]1(C)O [azithromycin] | did show some effects |  |  |  |  |  |  |  | toxic effects on cells (HUH7 cells): toxic effects on cells
8 | C=C1CC[C@H](O)C/C1=C/C=C1\CCC[C@]2(C)[C@@H]([C@H](C)/C=C/[C@H](C)C(C)C)CC[C@@H]12 [vitamin D2] | also reduced virus replication but did not meet all criteria |  |  |  |  |  |  |  | effect on virus replication [1]: also reduced virus replication but did not meet all criteria
9 | CC1=NN(c2ccc(C)c(C)c2)C(=O)/C1=N\Nc1cccc(-c2cccc(C(=O)O)c2)c1O [Eltrombopag] |  | 0.991 | 0.7191 | 3.72 | 0.8666 | 331875 | 322913 | 331553 | 
10 | Cl.Cl.Fc1ccc(C(c2ccc(F)cc2)N2CCN(C/C=C/c3ccccc3)CC2)cc1 [Flunarizine 2HCl] |  |  | 2.629 |  |  |  |  |  | Mean relative luminescence (n=4) [1, 4]: 0.1133; Mean relative luminescence (n=4) [1, 3]: 0.1133; Mean relative luminescence (n=4) [2]: 0.1091; PrestoBlue relative viability (Vero cells; Vero screen): 2.629; PrestoBlue relative viability (HUH7 cells): 0.9689
11 | C=C1/C(=C\C=C2/CCC[C@]3(C)[C@@H]([C@H](C)/C=C/[C@H](C)C(C)C)CC[C@@H]23)C[C@@H](O)C[C@@H]1O [Doxercalciferol] |  | 5.56 | 0.5418 | 8 | 0.9613 | 361602 | 356613 | 370984 | 
12 | CCN(CCO)CCCC(C)Nc1ccnc2cc(Cl)ccc12 (stereo not drawn) [hydroxychloroquine] | did show some effects |  |  |  |  |  |  |  | toxic effects on cells (HUH7 cells): toxic effects on cells
13 | COc1cccc2c1C(=O)c1c(O)c3c(c(O)c1C2=O)C[C@@](O)(C(=O)CO)C[C@@H]3O[C@H]1C[C@H](N)[C@@H](O)[C@H](C)O1 [Epirubicin HCl] |  | 2.8 |  | 3.44 | 0.8025 | 298948 | 310338 | 302560 | PrestoBlue relative viability (Vero cells; African green monkey): 0.9127
14 | O=C1CCc2ccc(OCCCCN3CCN(c4cccc(Cl)c4Cl)CC3)cc2N1 [Aripiprazole] |  | 10.1 | 0.6278 |  |  |  |  |  | Mean relative luminescence (n=4) [1, 4]: 0.1007; Mean relative luminescence (n=4) [2]: 0.008694; PrestoBlue relative viability (Vero cells; Vero screen): 0.6278; PrestoBlue relative viability (HUH7 cells): 0.7416
15 | CCCCCOc1ccc(-c2ccc(-c3ccc(C(=O)N[C@H]4C[C@@H](O)[C@@H](O)NC(=O)[C@@H]5[C@@H](O)[C@@H](C)CN5C(=O)[C@H]([C@@H](C)O)NC(=O)[C@H]([C@H](O)[C@@H](O)c5ccc(O)cc5)NC(=O)[C@@H]5C[C@@H](O)CN5C(=O)[C@H]([C@@H](C)O)NC4=O)cc3)cc2)cc1 [Anidulafungin] ({pTerphenylCO(4''-OnC5H11)}-[Orn(4R-OH,5R-OH)]T[Hyp][hTyr(3S-OH,4S-OH)]T[Pro(3S-OH,4S-Me)]; lactam 1-C) |  | 2.32 | 0.5453 | 4.57 | 0.974 | 365229 | 366012 | 364202 | Reads Counts per second (read 2) (recombinant NLuc): 376574 Counts per second
16 | Cl.Fc1ccc([C@@H]2CCNC[C@H]2COc2ccc3c(c2)OCO3)cc1 [Paroxetine HCl] |  |  | 1.088 | 12 | 0.9732 | 360169 | 368856 | 369849 | Mean relative luminescence (n=4) [1, 3]: 0.09097
17 | C[C@@H]1C[C@H]2[C@@H]3CCC4=CC(=O)C=C[C@]4(C)[C@@]3(F)[C@@H](O)C[C@]2(C)[C@@]1(O)C(=O)CO [dexamethasone] | did not demonstrate any effect on viral replication |  |  |  |  |  |  |  | effect on virus replication [1]: did not demonstrate any effect on viral replication
18 | O=C(/C=C/c1cccc(S(=O)(=O)Nc2ccccc2)c1)NO [Belinostat (PXD101), Belinostat] |  | 0.0366 | 0.895 | 4.67 | 0.9408 | 351877 | 355423 | 352055 | Reads Counts per second (read 2) (recombinant NLuc): 362403 Counts per second
